In patent US20040242676A1, “Method of mitigating the adverse effects of IL-2” (priority 2003, published 2004):
Read-outs that look alike come from different tables or passages of the source.

Experiments:
[1] = test system: LTB4-induced neutrophil granulation; test: Inhibition of LTB4-induced neutrophil granulation; format: cell-based
Text: (§1) A series of tests were run to determine the in vitro and in vivo pharmacology properties of the HMP LBA of this invention. A summary of the results of these tests appear below.
Inhibition of LTB4-induced neutrophil granulation

guinea pigs [2] = test: Inhibition of LTB4 chemotaxis in guinea pigs; format: in vivo, guinea pig; settings: Cavia porcellus, po; i.g.
Text: as §1
Inhibition of LTB4 chemotaxis in guinea pigs

[3] = test system: LTA4 conversion into LTB4; test: Inhibition of LTA4 conversion into LTB4; format: biochemical
Text: as §1
Inhibition of LTA4 conversion into LTB4

Human subjects = test: Effect of LMP LBA and HMP LBA on hepatotoxicity in humans (alanine aminotransferase); format: in vivo
Experimental: Human subjects between the ages of 18 and 70 received every 8 hours single capsules containing either the LMP LBA or the HMP LBA form. The drug is prepared as a fine powder and then mixed as drug/excipients at 20/80 wt %/wt % where excipients consist of equal weights of lactose and hydroxypropyl methylcellulose. The intention of dosing was to examine the effect of increasing doses of each LBA on safety and tolerability. Standard laboratory parameters were measured, including complete blood count, chemistry panel 20, urinary analysis, and electrocardiogram (ECG). Measurements of the laboratory tests were made daily except for the ECG which was measured at baseline, 1 week, and 1 week after cessation of dosing. There were no differences in the safety profiles with the exception of liver function testing.
Because the liver plays a central role in the metabolism of drugs, the effect a drug has on liver function is an important effect to consider. An indicator of an adverse effect that a drug may have on the liver is the peak change from baseline of alanine aminotransferase (ALT). […] A significant increase of ALT is generally an increase of more than 2.

[4] = test system: patients with metastatic renal carcinoma; settings: for number of doses of IL-2 that could be tolerated, as related to the dose of the LBA: FIG. 2, p<0.05; for number of doses of IL-2 that could be tolerated, as related to the plasma level of the LBA: FIG. 3, p<0.03
Experimental: PROLEUKIN® IL-2 is administered to the patient in accordance with the labeling instructions (in brief, 600,000 IU/kg every 8 hours as tolerated). […] Therefore, 16 doses of the LA compound would be given during this same five-day period. […] These two courses constitute one cycle of IL-2.
Accordingly, the number of doses of IL-2 that can be given constitutes the single best measure of the tolerability of IL-2. The response rate, as measured by tumor shrinkage or disappearance, is the measure of antitumor activity.
The scheduled dosing regimen of IL-2 was 3× daily for a total of 14 doses over 5 days, followed by 9 days without IL-2, and then a repeat of the initial 14 doses over 5 days. The dose of IL-2 was 600,000 IU/kg administered intravenously every 8 hours.

[5] = Dissolution of LMP and HMP forms as a function of pH; format: physicochemical; settings: for AUC of dissolution over the range of pH: pH 1.2 to 7.5; for Dissolution (%): 10 mg in 100 mL water, 37° C., 15 mins
Experimental: The LMP and HMP forms of the LBA of formula (I) were prepared in accordance with a process described in Examples 1 and 2, respectively. The pH of each of multiple 100 mL aliquots of distilled water was adjusted within the range of 1.2 to 7.5. Ten mg of either the LMP or HMP forms, finely ground with mortar and pestle, were placed into separate aliquots and then stirred at 37° C. for 15 mins. The dissolution characteristic of the LMP and HMP forms was measured at each pH and expressed as a percentage of the whole. Areas-under-the curve (AUCS) were calculated over the range of pH values tested. [Since the ordinate values are expressed as % dissolution and the abscissa values are expressed as pH units, then the units of AUC is expressed as the product of % dissolution times pH units or, alternatively, “%·log[[…]]” Results appear below in Table 2.

guinea pig ear = test: Inhibition of calcium ionophore dermal inflammation in the guinea pig ear; settings: in vivo
Text: as §1
Inhibition of calcium ionophore dermal inflammation in the guinea pig ear

[6] = Pharmacokinetics of suspension and solution in the rat; format: in vivo; settings: gavage, 100 mg/kg; for AUC: trapezoidal rule
Experimental: Adult male Munich-Wistar rats (250 g, Charles River Laboratories) received by gavage a suspension of either HMP or LMP LBA in polyethylene glycol 400 at 100 mg/kg or 100 mg/kg of an equal mass of the HMP and LMP forms in solution at pH 7.5. Non-compartmental pharmacokinetics were determined and appear below in Table 3.

LTB4 chemotaxis = test: Inhibition of LTB4 chemotaxis; format: cell-based
Text: as §1
Inhibition of LTB4 chemotaxis

rats and guinea pig = test: Inhibition of acetic acid colonic inflammation in rats and guinea pig; format: in vivo; settings: po; i.g.
Text: as §1
Inhibition of acetic acid colonic inflammation in rats and guinea pig

[7] = test system: human neutrophil adhesion to LTB4-stimulated umbilical vein endothelial cells; test: Inhibition of human neutrophil adhesion to LTB4-stimulated umbilical vein endothelial cells; format: cell-based
Text: as §1
Inhibition of human neutrophil adhesion to LTB4-stimulated umbilical vein endothelial cells

guinea pigs [8] = test: Inhibition of 12 (R)-HETE in guinea pigs; format: in vivo, guinea pig; settings: Cavia porcellus, po; i.g.
Text: as §1
Inhibition of 12 (R)—HETE in guinea pigs

LTB4 synthesis = test: Inhibition of LTB4 synthesis; format: biochemical
Text: as §1
Inhibition of LTB4 synthesis

CCCc1c(OCCCOc2ccc(C(C)=O)c(OC)c2CCC)ccc2c1OC(C(=O)O)CC2 (racemic) [HMP LBA, (±) 7-[3-(4-acetyl-3-methoxy-2-propylphenoxy)propoxy]-3,4-dihydro-8-propyl-2H-1-benzopyran-2-carboxylic acid]
Inhibition of LTB4-induced neutrophil granulation, range [1]: 1 to 3 µM
ED50 (guinea pigs [2]): 0.6 mg/kg
IC50 [3]: 20 µM
Peak Change from Baseline Alanine Aminotransferase (multiple) (Human subjects; daily dose 75 mg, cumulative 375 mg over 5 days): 1 multiple
Peak Change from Baseline Alanine Aminotransferase (multiple) (Human subjects; daily dose 100 mg, cumulative 500 mg over 5 days): 1 multiple
Peak Change from Baseline Alanine Aminotransferase (multiple) (Human subjects; daily dose 125 mg, cumulative 625 mg over 5 days): 2 multiple
Peak Change from Baseline Alanine Aminotransferase (multiple) (Human subjects; daily dose 150 mg, cumulative 750 mg over 5 days, listed as HMP): 2 multiple
Peak Change from Baseline Alanine Aminotransferase (multiple) (Human subjects; daily dose 175 mg, cumulative 875 mg over 5 days): 2 multiple
Peak Change from Baseline Alanine Aminotransferase (multiple) (Human subjects; daily dose 200 mg, cumulative 1000 mg over 5 days): 1 multiple
Peak Change from Baseline Alanine Aminotransferase (multiple) (Human subjects; daily dose 225 mg, cumulative 1125 mg over 5 days): 0 multiple
Peak Change from Baseline Alanine Aminotransferase (multiple) (Human subjects; daily dose 300 mg, cumulative 1500 mg over 5 days): −.5 multiple
Peak Change from Baseline Alanine Aminotransferase (multiple) (Human subjects; daily dose 450 mg, cumulative 2250 mg over 5 days): 0 multiple
Peak Change from Baseline Alanine Aminotransferase (multiple) (Human subjects; daily dose 600 mg, cumulative 3000 mg over 5 days): 2 multiple
Peak Change from Baseline Alanine Aminotransferase (multiple) (Human subjects; daily dose 750 mg, cumulative 3750 mg over 5 days): 1 multiple
Peak Change from Baseline Alanine Aminotransferase (multiple) (Human subjects; daily dose 900 mg, cumulative 4500 mg over 5 days): 1 multiple
doses administered without excessive hepatotoxicity (Human subjects; humans, 4500 mg over five days): up to 900 mg/day
tolerability (Human subjects; intermittent dosing: 5 days, 9 days without exposure, 5 days, total exposure 9000 mg): improved even further
number of doses of IL-2 that could be tolerated, as related to the dose of the LBA ([4]; FIG. 4): rose
number of doses of IL-2 that could be tolerated, as related to the dose of the LBA ([4]; FIG. 4, listed as LBA): increases
number of doses of IL-2 that could be tolerated, as related to the plasma level of the LBA [4]: rose
number of doses of IL-2 that could be tolerated, as related to the plasma level of the LBA ([4]; listed as LBA): increases
frequency of serious IL-2 events ([4]; HMP LBA doses at or above 250 mg/day, 5/27): 19%
frequency of serious IL-2 events ([4]; HMP LBA doses of <250 mg/day, 13 events in 35 patients): 38%
frequency of IL-2 induced serious adverse clinical events as total exposure to IL-2 increased ([4]; coadministration of HMP LBA, FIG. 4): significantly declined
response rate to treatment with IL-2 under LBA treatment ([4]; human, in vivo): not diminished
tolerability ([4]; oral, 75-900 mg/day, co-administered with IL-2): well tolerated
maximal tolerated dose ([4]; oral, co-administered with IL-2, 62 subjects): > 900 mg/day
concentration in the plasma as a function of dose ([4]; p<0.02): rose linearly in a dose-proportional manner
AUC of dissolution over the range of pH ([5]; listed as HMP): 163 %·pH units
Dissolution (%) ([5]; pH 5.0, listed as HMP): 6%
Dissolution (%) ([5]; pH 5.5, listed as HMP): 18%
Dissolution (%) ([5]; pH 6.0, listed as HMP): 29%
Dissolution (%) ([5]; pH 6.5, listed as HMP): 50%
Dissolution (%) ([5]; pH 7.0, listed as HMP): 81%
ED50, inhibition of calcium ionophore dermal inflammation in the guinea pig ear (guinea pig ear): 0.7 mg/ear
Cmax ([6]; listed as HMP): 13000 ng/mL
Tmax ([6]; listed as HMP): 2.0 h
AUC ([6]; listed as HMP): 65000 ng·h/mL
Inhibition of LTB4 chemotaxis, range (LTB4 chemotaxis): 0.3 to 3.0 µM
ED50 (rats and guinea pig): 20 mg/kg
Inhibition of human neutrophil adhesion to LTB4-stimulated umbilical vein endothelial cells, range [7]: 0.3 to 1.0 µM
ED50 (guinea pigs [8]): 20 mg/kg
IC50 (LTB4 synthesis): 2.1 µM

CCCc1c(OCCCOc2ccc(C(C)=O)c(OC)c2CCC)ccc2c1OC(C(=O)O)CC2 (racemic) [LMP LBA, (±)-7-[3-(4-acetyl-3-methoxy-2-propylphenoxy)-propoxy]3,4-dihydro-8-propyl-2H-1-benzopyran-2-carboxylic acid]
tolerability (hepatotoxicity) (Human subjects; 150 mg daily for up to 14 consecutive days (total target dose 2100 mg)): not well tolerated
subjects withdrawn from dosing because of adverse changes in alanine aminotransferase levels (Human subjects; 60 and 150 mg/day): 6/6
Peak Change from Baseline Alanine Aminotransferase (multiple) (Human subjects; daily dose 60 mg, cumulative 300 mg over 5 days): 2.5 multiple
Peak Change from Baseline Alanine Aminotransferase (multiple) (Human subjects; daily dose 150 mg, cumulative 750 mg over 5 days, listed as LMP): 2.5 multiple
Dissolution (%) ([5]; pH 1.2): 0%
AUC of dissolution over the range of pH ([5]; listed as LMP): 284 %·pH units
Dissolution (%) ([5]; pH 3.0): 0%
Dissolution (%) ([5]; pH 4.5): 0%
Dissolution (%) ([5]; pH 5.0, listed as LMP): 20%
Dissolution (%) ([5]; pH 5.5, listed as LMP): 48%
Dissolution (%) ([5]; pH 6.0, listed as LMP): 82%
Dissolution (%) ([5]; pH 6.5, listed as LMP): 96%
Dissolution (%) ([5]; pH 7.0, listed as LMP): 99%
Dissolution (%) ([5]; pH 7.5): 100%
Tmax ([6]; listed as LMP): 0.7 h
Cmax ([6]; male, Munich-Wistar, blood, po, read-out: Cmax): 10400 ng/mL
AUC ([6]; male, Munich-Wistar, blood, po, read-out: AUC): 57000 ng·h/mL

des-alanyl-1, serine-125 human interleukin-2 [IL-2]
objective response rate ([4]; patients with metastatic renal cell cancer, after a single course of treatment with IL-2): 10-15%
